Measured values as given in patent US11311593B2, “Root extracts from plants of the Morus genus and uses of same” (PLANT ADVANCED TECHNOLOGIES PAT, priority 2017, dated 2022).

Target: T1, hyaluronidase originating from bull testicles (type IV-S) (Bos taurus, UniProt Q2YDK3)
T1 construct: hyaluronidase originating from bull testicles (type IV-S); from tissue; host or cells: bull testicles
T1 sequence (Q2YDK3 36-553): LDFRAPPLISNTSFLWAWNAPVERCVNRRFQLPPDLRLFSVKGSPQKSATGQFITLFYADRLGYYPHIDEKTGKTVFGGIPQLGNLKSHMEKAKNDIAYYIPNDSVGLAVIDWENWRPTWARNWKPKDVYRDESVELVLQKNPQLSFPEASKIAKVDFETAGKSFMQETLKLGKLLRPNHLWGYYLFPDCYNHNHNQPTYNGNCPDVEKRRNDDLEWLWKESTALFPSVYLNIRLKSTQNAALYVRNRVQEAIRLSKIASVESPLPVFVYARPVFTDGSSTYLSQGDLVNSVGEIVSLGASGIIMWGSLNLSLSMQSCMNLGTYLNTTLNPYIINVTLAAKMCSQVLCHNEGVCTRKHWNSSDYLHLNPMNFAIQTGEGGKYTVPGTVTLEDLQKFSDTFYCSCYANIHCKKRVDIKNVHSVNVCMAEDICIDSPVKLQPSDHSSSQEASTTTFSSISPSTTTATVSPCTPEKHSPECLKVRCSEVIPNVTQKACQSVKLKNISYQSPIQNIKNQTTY
Test: Anti-hyaluronidase inhibiting activity, hyaluronic acid as substrate, precipitation with acidic BSA
Type: biochemical
Method: A root extract of Morus Alba was prepared in accordance with the protocol described in Example 5. Hyaluronidase catalyzes the hydrolysis of hyaluronic acids into monosaccharides, disaccharides and short oligosaccharides. The measurement of the anti-hyaluronidase inhibiting activity was carried out using hyaluronic acid (HA) as a substrate in order to follow its reduction during the enzymatic reaction, the slope of the reduction of the concentration of HA during the reaction being proportional to the enzymatic activity.
The concentration of HA was measured in accordance with the following principle: in the presence of an acidic solution of bovine serum albumin, HA precipitates. Thus, in the case of the presence of HA, a precipitate is formed and in the case of complete hydrolysis of the HA, no precipitate is observed. Thus, the quantity of precipitation is proportion& to the HA content. […]
In order to follow the enzymatic degradation of the HA, a volume of 50 μl of RM was removed every 15 minutes, mixed with a volume of 250 μL of the solution of acidic BSA (acidic solution of bovine serum albumin: 24 mM sodium acetate, 79 mM acetic add and 0.1% (w/v) bovine serum albumin, pH 3.75) then incubated for 10 min at ambient temperature. The quantity of precipitate formed was then measured using a plate reader (diffusion of light at 600 nm). […]

CC(C)=CCc1c(O)ccc(C(=O)[C@@H]2CC(C)=C[C@H](c3c(O)cc(O)c4c(=O)c(CC=C(C)C)c(-c5ccc(O)cc5O)oc34)[C@H]2c2ccc(O)cc2O)c1O [Moracenin A, moracenin A]
inhibition at 10 µM: 55.1%
